In patent US20230095509A1, “NON-FIBRILLAR HEMOGLOBIN S OLIGOMERS AND METHODS TO IDENTIFY MODULATORS OF HEMOGLOBIN S POLYMERIZATION” (REGENTS OF THE UNIVERSITY OF MINNESOTA, priority 2021, published 2023):
pIC50: −log10 of the molar value. “Also recorded” adds a separate entry of the source.

Key:
[1] = target: deoxy-HbS oligomers (sickle hemoglobin, HbS) (Homo sapiens, UniProt P68871+P69905, E7V); assay: Dynamic light scattering (DLS) of deoxy-HbS oligomers at sub-nucleating concentration; assay type: biochemical; settings: HbS 25 μM; for size of deoxyHbS oligomers (DLS effective diameter) relative to control: hit compounds 100 μM, two hours at room temperature, degassed with argon, FIG. 4C
Procedure: (FIG. 4A) Pilot screening with LOPAC library. Compounds that reduced the FRET efficiency below 3SD (black line) were selected for further characterization. […] Fluorescently labeled HbS samples were plated in a 1536 plate and treated separately with DMSO or the three hit compounds, chlormezanone, gabazine, and phosphoramidon disodium, in a dose-dependent manner from 0.1 to 1000 μM for 2 hours at room temperature and then vacuum degassed for 10 minutes, and then donor lifetimes were measured using a fluorescence plate reader. […] HbS samples (25 μM) were incubated separately with hit compounds (100 μM) or DMSO only for two hours at room temperature and degassed with argon for five minutes, and then DLS measurement were taken at room temperature. […] Effect of hit compounds on polymerization of deoxyHbS in high potassium phosphate buffer. Curves represent growth of polymer as a function of time in the presence or absence of drug.

[2] = target: T1, deoxyHbS oligomers (HbS-rhodamine red / HbS-Cy5) (Homo sapiens, UniProt P68871+P69905, E7V); assay: Fluorescence lifetime (FLT) FRET assay of deoxyHbS oligomerization (LOPAC screen and dose response); assay type: biochemical; settings: for FRET efficiency in dose response: 0.1 to 1000 μM, 2 hours at room temperature, then degassed, FIG. 4B; for FRET efficiency of HbS under deoxy conditions: known polymerization inhibitors as controls, FIG. 1D
T1 construct: purchased Sigma
Procedure: Development of HTS platform for identification of small molecules that inhibit in vitro HbS nucleation: Sickle hemoglobin (HbS) (sigma) was labeled with either fluorescent donor (rhodamine red) or acceptor (Cy5) dyes (Thermo fisher scientific) via a cysteine thiol group. For labeling, lyophilized HbS (10 mg/ml) was dissolved in PBS (Sigma) and then centrifuged at 13000 g for five minutes at 4° C. to remove the debris. After centrifugation protein sample was incubated with TCEP (0.5-1 mM) for 20 minutes at room temperature to reduce the cysteine side-chain. This protein mixture was incubated with 1.5 mM dye (dissolved in DMSO or water) for two hours in the dark at room temperature or overnight at 4° C. Unreacted free dye was removed by dialysis against PBS. The degree of labeling was calculated by comparing the absorption of the fluorophore conjugated hemoglobin at 280 nm to the absorbance of the dye at its maximum wavelength. The dye concentration was measured by absorbance, using extinction coefficients of 250,000 M −1 cm -1 for Cy5 conjugates and 88000 M −1 cm -1 for Rhodamine Red conjugates.
High-Throughput Screening of LOPAC Library to Identify Compounds That Inhibit HbS Oligomerization Under Deoxy Condition: The LOPAC compounds (Thermo Fisher Scientific) were received in 96-well plates. Assay plates were prepared by transferring 5 nL of the 10 mM compound stocks or DMSO from the source plates to 1536-well black polypropylene plates (Greiner), using an Echo 550 acoustic dispenser (Labcyte). During screening, donor sample (HbS/Rhodamine Red) was mixed with acceptor (HbS/Cy5) at 1:5 ratios. Then protein samples were dispensed (5 μL, 25 μM) by a Multidrop Combi Reagent Dispenser (Thermo Fisher Scientific) into the 1536-well assay plates containing the compounds and incubated at room temperature for two hours. After incubation, protein samples were degassed for 10-15 minutes using vacuum argon degassing method. Lifetime measurements were taken by the fluorescence lifetime plate reader (Fluorescence Innovations, Inc).
Fluorescence Data Acquisition: We tested the functionality of the HbS FRET pair by measuring lifetimes of oxy-and deoxy HbA and HbS using a fluorescence lifetime plate reader (FIG. 3A). Lifetimes are reciprocally related to FRET, so a decrease in lifetime corresponds to an increase in FRET. Donor fluorescence was excited with a 532 nm laser (Teem Photonics SNG-20F-100, Meylan, France), delivering pulses of -0.3 μJ energy at a 20 kHz repetition rate, and emission was filtered with 546 nm long pass and 586/20 nm band pass filters. This filter was selected to exclude acceptor fluorescence, as only the lifetime of the donor fluorescent protein is required to calculate FRET (Equation (1)). The photomultiplier tube (PMT) voltage was adjusted so that the peak signals of the instrument response function (IRF) and FRET biosensor were similar.
High-Throughput Screening Data Analysis: Time resolve-fluorescence waveforms for each well were fitted with single-exponential decays using least-squares minimization global analysis software (Petersen et al., F2014, Rev Sci Instrum 85, 113101). FRET efficiency (E) was determined as the fractional decrease of donor lifetime (T_D ), due to the presence of acceptor fluorophore (T_DA) using equation 1: […]
These drug compounds were dissolved in DMSO to make 20 mM stock solution. Hits were screened at seven different concentrations. Protein samples were dispensed into the 96-well assay plates and incubated with hit compounds at room temperature for two hours. After incubation, protein samples were degassed for 10 minutes using vacuum argon degassing method. Lifetime measurements were taken by the fluorescence lifetime plate reader (Fluorescence Innovations, Inc).

[3] = system: RBC from healthy donors (genotype HbAA); assay: Microfluidic measurement of RBC oxygen saturation (Quantitative Absorption Cytometry, P50); assay type: cell-based, human; settings: for P50 (hemoglobin oxygen binding affinity) relative to control: 500 μM, RBC from 4 healthy donors, 1 hr at 37C at 25% hematocrit, diluted to 1% hematocrit with drug, FIG. 10
Procedure: Measurement of hemoglobin oxygen saturation in RBC from 4 healthy donors (genotype HbAA). RBC at 25% hematocrit were incubated with 500 uM voxelotor, chlormezanone, gabazine, or DMSO (control) for 1 hr at 37C and then diluted to 1% hematocrit with drug.
Microfluidic Measurement of RBC Oxygen Saturation: The Quantitative Absorption Cytometry assay described previously (Di Caprio et al., 2019, Proc Natl Acad Sci USA 116, 25236-25242; Di Caprio et al., 2015, Proc Natl Acad Sci USA 112, 9984-9989), takes images of single red blood cells (RBC) under alternating 410 nm and 430 nm LEDs. Due to the unique absorption spectra of oxy and deoxy hemoglobin the transmitted light at 410 nm and 430 nm permits measurement of the single cell saturation can be calculated. The cells are perfused through a microfluidic device with oxygen control that permits measurement of the oxygen saturation of a population of RBC under defined oxygen tension. The polydimethysiloxane (PDMS) microfluidic device for this assay comprises two layers- a gas layer and a blood layer bonded to a glass coverslip. These two layers are separated by 100 μm of PDMS. The gas layer allows for precise control of oxygen tension that will diffuse to the blood layer; the blood layer contains a 30 mm diffusion section to allow red blood cells to reach steady state saturation and a 5 mm observation section to imaging RBCs.
To prepare RBC for measurement, blood samples were washed and resuspended in 10% w/v BSA in PBS, and 0.5 μL of 100 mM therapeutic in DMSO was added to the sample. The sample was then incubated on a shaker plate at 37° C. for one hour. After incubation samples were washed again and 10 μL packed red blood cells was added to a solution of 288 μL 25% Human Serum Albumin (HAS) solution (Gemini Bio).
In this assay, we prepared samples identically to the preparation for blood flow by incubating with drug at 25% hematocrit, and then we diluted the samples to 1% hematocrit with […] drug in the dilution buffer.

Structure (SMILES) | size of deoxyHbS oligomers (DLS effective diameter) relative to control [1] | pIC50 [2] | FRET efficiency in dose response [2] | effect on FRET efficiency in the LOPAC pilot screen ([2]; LOPAC screen, mean of three independent screens, FIG. 4A) | P50 (hemoglobin oxygen binding affinity) relative to control [3] | mean oligomer size of deoxyHbS (DLS effective diameter) ([1]; degassed with argon 5 minutes, room temperature, FIG. 1A) | FRET efficiency of HbS under deoxy conditions [2] | FRET efficiency of HbS under deoxy conditions ([2]; listed as Voxelotor) | modification of hemoglobin ([3]; samples diluted to 1% hematocrit with drug in the dilution buffer)
CN1C(=O)CCS(=O)(=O)C1c1ccc(Cl)cc1 (stereo not shown) [chlormezanone] | significantly decreased the oligomer size | < 4.00 | decreased FRET efficiency in a dose-dependent manner | by far the largest effect | neither chlormezanone nor gabazine significantly shifted P50; also recorded: no significant (p>0.05) change in P50 |  |  |  | 
COc1ccc(-c2ccc(=N)n(CCCC(=O)O)n2)cc1 [gabazine] | significantly decreased the oligomer size |  | decreased FRET efficiency in a dose-dependent manner |  | neither chlormezanone nor gabazine significantly shifted P50; also recorded: no significant (p>0.05) change in P50 |  |  |  | 
CC(C)n1nccc1-c1ncccc1COc1cccc(O)c1C=O [voxelotor] |  |  |  |  | significantly (p<0.05) decreases P50; also recorded: large shift in P50; also recorded: significantly decreased the P50 | dramatically reduced the mean oligomer size | decreased the FRET efficiency | reduced FRET efficiency | ~100%
